Test results taken from patent US9828368B2 (MERCK SHARP & DOHME CORP., priority 2013, dated 2017).

Key:
human orexin-2 receptor = human orexin-2 receptor (Homo sapiens (Human), UniProt O43614); assay: FLIPR Ca2+ flux assay, hOX2R; assay type: cell-based; details: CHO cells expressing human orexin-2 receptor; agonist 70 pM Ala-6,12 orexin-A
Procedure: In a typical experiment the OX1 and OX2 receptor antagonistic activity of the compounds of the present invention was determined in accordance with the following experimental method. For intracellular calcium measurements, Chinese hamster ovary (CHO) cells expressing the rat orexin-1 receptor or the human orexin-2 receptor, are grown in Iscove's modified DMEM containing 2 mM L-glutamine, […], 1% hypoxanthine-thymidine supplement, 100 U/ml penicillin, 100 μg/ml streptomycin and 10% heat-inactivated fetal calf serum (FCS). The cells are seeded at 20,000 cells/well into Becton-Dickinson black 384-well clear bottom sterile plates coated with poly-D-lysine. All reagents were from GIBCO-Invitrogen Corp. The seeded plates are incubated overnight at 37° C. and 5% CO2. Ala-6,12 human orexin-A as the agonist is prepared as a 1 mM stock solution in 1% bovine serum albumin (BSA) and diluted in assay buffer (HBSS containing 20 mM HEPES, 0.1% BSA and 2.5 mM probenecid, pH7.4) for use in the assay at a final concentration of 70 pM. Test compounds are prepared as 10 mM stock solution in DMSO, then diluted in 384-well plates, first in DMSO, then assay buffer. On the day of the assay, cells are washed 3 times with 100 μl assay buffer and then incubated for 60 min (37° C., 5% CO2) in 60 μl assay buffer containing 1 μM Fluo-4AM ester, 0.02% pluronic acid, and 1% BSA. The dye loading solution is then aspirated and cells are washed 3 times with 100 μl assay buffer. 30 μl of that same buffer is left in each well. Within the Fluorescent Imaging Plate Reader (FLIPR, Molecular Devices), test compounds are added to the plate in a volume of 25 μl, incubated for 5 min and finally 25 μl of agonist is added. Fluorescence is measured for each well at 1 second intervals for 5 minutes and the height of each fluorescence peak is compared to the height of the fluorescence peak induced by 70 pM Ala-6,12 orexin-A with buffer in place of antagonist. […] The intrinsic orexin receptor antagonist activity of a compound which may be used in the present invention may be determined by these assays.

hOX1R = hOX1R (Homo sapiens, UniProt O43613); assay: FLIPR Ca2+ flux assay, hOX1R; assay type: cell-based; details: CHO cells; agonist 70 pM Ala-6,12 orexin-A; rat orexin-1 receptor; read-out: hOX1R FLIPR IC50

Chain of human orexin-2 receptor (O43614 whole entry): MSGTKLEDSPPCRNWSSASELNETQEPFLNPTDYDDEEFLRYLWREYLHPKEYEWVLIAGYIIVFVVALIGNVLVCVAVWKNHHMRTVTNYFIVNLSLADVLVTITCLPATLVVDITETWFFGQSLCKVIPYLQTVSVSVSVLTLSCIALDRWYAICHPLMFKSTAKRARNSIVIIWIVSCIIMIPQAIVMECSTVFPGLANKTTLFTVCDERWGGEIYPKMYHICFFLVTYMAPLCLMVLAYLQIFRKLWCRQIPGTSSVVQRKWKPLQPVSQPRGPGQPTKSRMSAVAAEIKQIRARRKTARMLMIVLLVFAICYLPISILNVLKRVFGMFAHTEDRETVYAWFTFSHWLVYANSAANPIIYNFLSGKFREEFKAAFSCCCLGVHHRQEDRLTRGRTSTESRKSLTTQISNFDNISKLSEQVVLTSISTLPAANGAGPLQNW

What does the source list for `Cc1oc([C@@H]2CC[C@@H](C)N(C(=O)c3ccccc3C3(C#N)CC3)C2)nc1C(C)(C)O` [Example 20, 1-(2-((2R,5R)-5-(4-(2-Hydroxypropan-2-yl)-5-methyloxazol-2-yl)-2-methylpiperidine-1-carbonyl)phenyl)cyclopropanecarbonitrile]?
IC50 (human orexin-2 receptor): 16.6 nM; IC50 (hOX1R): 425 nM

Which results are given for `Cc1oc([C@@H]2CC[C@@H](C)N(C(=O)c3ccccc3C3(C#N)CCOCC3)C2)nc1C(C)(C)O` [Example 21]?
IC50 (human orexin-2 receptor): 500 nM; IC50 (hOX1R): > 10000 nM

`CCOc1ncccc1C(=O)N1C[C@H](c2nc(C(C)(C)O)c(C)o2)CC[C@H]1C` [Example 22, (2-Ethoxypyridin-3-yl)((2R,5R)-5-(4-(2-hydroxypropan-2-yl)-5-methyloxazol-2-yl)-2-methylpiperidin-1-yl)methanone] was tested. Which IC50 (human orexin-2 receptor) did it give?
The IC50 was 297 nM.

What about the IC50 (hOX1R) of the same compound?
Its IC50 is over 10000 nM.

`Cc1oc([C@@H]2CC[C@@H](C)N(C(=O)c3cccc4ccnn34)C2)nc1C(C)(C)O` [Example 23, ((2R,5R)-5-(4-(2-Hydroxypropan-2-yl)-5-methyloxazol-2-y1)-2-methylpiperidin-1-yl)(pyrazolo[1,5-a]pyridin-7-yl)methanone] was tested. Which IC50 (human orexin-2 receptor) did it give?
Its IC50 is 110 nM.

What about the IC50 (hOX1R) of the same compound?
Its IC50 is over 10000 nM.

`Cc1oc([C@@H]2CC[C@@H](C)N(C(=O)c3ccccc3-n3ncnn3)C2)nc1C(C)(C)O` [Example 24, (2-(2H-Tetrazol-2-yl)phenyl)((2R,5R)-5-(4-(2-hydroxypropan-2-yl)-5-methyloxazol-2-yl)-2-methylpiperidin-1-yl)methanone] was tested. Which IC50 (human orexin-2 receptor) did it give?
Its IC50 is 13.5 nM.

What about the IC50 (hOX1R) of the same compound?
Its IC50 is 3840 nM.

Which IC50 (human orexin-2 receptor) does the source give for `Cc1oc([C@@H]2CC[C@@H](C)N(C(=O)c3ccsc3-n3nccn3)C2)nc1C(C)(C)O` [Example 25, (2-(2H-1,2,3-Triazol-2-yl)thiophen-3-yl)((2R,5R)-5-(4-(2-hydroxypropan-2-yl)-5-methyloxazol-2-yl)-2-methylpiperidin-1-yl)methanone] here?
Its IC50 is 10.7 nM.

What about the IC50 (hOX1R) of the same compound?
The IC50 was 1650 nM.

`Cc1oc([C@@H]2CC[C@@H](C)N(C(=O)c3ccsc3-c3ncccn3)C2)nc1C(C)(C)O` [Example 26, ((2R, 5R)-5-(4-(2-Hydroxypropan-2-yl)-5-methyloxazol-2-yl)-2-methylpiperidin-1-yl)(2-(pyrimidin-2-yl)thiophen-3-yl)methanone] was tested. Which IC50 (human orexin-2 receptor) did it give?
The IC50 was 42 nM.

And the IC50 (hOX1R)?
Its IC50 is 1360 nM.

Which IC50 (human orexin-2 receptor) does the source give for `Cc1oc([C@@H]2CC[C@@H](C)N(C(=O)c3ccccc3OC(F)(F)F)C2)nc1C(C)(C)O` [Example 28, ((2R,5R)-5-(4-(2-Hydroxypropan-2-yl)-5-methyloxazol-2-yl)-2-methylpiperidin-l-yl)(2-(trifluoromethoxy)phenyl)methanone] here?
The IC50 was 14.1 nM.

What about the IC50 (hOX1R) of the same compound?
Its IC50 is 1400 nM.

Which results are given for `Cc1oc([C@@H]2CC[C@@H](C)N(C(=O)c3ccccc3OC(C)C)C2)nc1C(C)(C)O` [Example 29, ((2R,5R)-5-(4-(2-Hydroxypropan-2-yl)-5-methyloxazol-2-yl)-2-methylpiperidin-1-yl)(2-isopropoxyphenyl)methanone]?
IC50 (human orexin-2 receptor): 20.4 nM; IC50 (hOX1R): 2000 nM

What does the source list for `Cc1oc([C@@H]2CC[C@@H](C)N(C(=O)c3nc(Cl)sc3C(C)C)C2)nc1C(C)(C)O` [Example 32, (2-Chloro-5-isopropylthiazol-4-yl)((2R,5R)-5-(4-(2-hydroxypropan-2-yl)-5-methyloxazol-2-yl)-2-methylpiperidin-1-yl)methanone]?
IC50 (human orexin-2 receptor): 160 nM; IC50 (hOX1R): > 10000 nM

With `COC(=O)c1ccccc1C(=O)N1C[C@H](c2nc(C(C)(C)O)c(C)o2)CC[C@H]1C` [Example 33, Methyl 2-((2R,5R)-5-(4-(2-hydroxypropan-2-yl)-5-methyloxazol-2-yl)-2-methylpiperidine-1-carbonyl)benzoate] as the compound, how does the IC50 (human orexin-2 receptor) read?
Its IC50 is 23 nM.

What about the IC50 (hOX1R) of the same compound?
Its IC50 is 9980 nM.

Which IC50 (human orexin-2 receptor) does the source give for `Cc1oc([C@@H]2CC[C@@H](C)N(C(=O)c3ccccc3-c3ncccn3)C2)nc1C(C)(C)O` [Example 34, ((2R,5R)-5-(4-(2-Hydroxypropan-2-yl)-5-methyloxazol-2-yl)-2-methylpiperidin-1-yl)(2-(pyrimidin-2-yl)phenyl)methanone] here?
The IC50 was 56 nM.

And the IC50 (hOX1R)?
The IC50 was 2200 nM.

With `Cc1oc([C@@H]2CC[C@@H](C)N(C(=O)c3ccc(F)cc3-n3nccn3)C2)nc1C(C)(C)O` [Example 37] as the compound, how does the IC50 (human orexin-2 receptor) read?
The IC50 was 19.1 nM.

And the IC50 (hOX1R)?
Its IC50 is 1350 nM.

For `Cc1oc([C@@H]2CC[C@@H](C)N(C(=O)c3cccnc3OCC(F)F)C2)nc1C(C)(C)O` [Example 38, (2-(2,2-Difluoroethoxy)pyridin-3-yl)((2R,5R)-5-(4-(2-hydroxypropan-2-yl)-5-methyloxazol-2-yl)-2-methylpiperidin-1-yl)methanone], which IC50 (human orexin-2 receptor) is on record?
Its IC50 is 14.1 nM.

What about the IC50 (hOX1R) of the same compound?
The IC50 was about 6400 nM.

`Cc1oc([C@@H]2CC[C@@H](C)N(C(=O)c3cccnc3OCC(F)(F)F)C2)nc1C(C)(C)O` [Example 39, ((2R,5R)-5-(4-(2-Hydroxypropan-2-yl)-5-methyloxazol-2-y1)-2-methylpiperidin-1-yl)(2-(2,2,2-trifluoroethoxy)pyridin-3-yl)methanone] was tested. Which IC50 (human orexin-2 receptor) did it give?
Its IC50 is 17.5 nM.

And the IC50 (hOX1R)?
The IC50 was 2130 nM.

What does the source list for `Cc1oc([C@@H]2CC[C@@H](C)N(C(=O)c3cccnc3OC(C)C)C2)nc1C(C)(C)O` [Example 40, ((2R,5R)-5-(4-(2-Hydroxypropan-2-yl)-5-methyloxazol-2-yl)-2-methylpiperidin-1-yl)(2-isopropoxypyridin-3-yl)methanone]?
IC50 (human orexin-2 receptor): 29.5 nM; IC50 (hOX1R): > 10000 nM

What does the source list for `COCCc1ccccc1C(=O)N1C[C@H](c2nc(C(C)(C)O)c(C)o2)CC[C@H]1C` [Example 41, ((2R,5R)-5-(4-(2-Hydroxypropan-2-yl)-5-methyloxazol-2-yl)-2-methylpiperidin-1-yl)(2-(2-methoxyethyl)phenyl)methanone]?
IC50 (human orexin-2 receptor): 57 nM; IC50 (hOX1R): > 10000 nM

For `Cc1oc([C@@H]2CC[C@@H](C)N(C(=O)c3cnsc3-n3nccn3)C2)nc1C(C)(C)O` [Example 42, (5-(2H-1,2,3-Triazol-2-yl)isothiazol-4-yl)((2R,5R)-5-(4-(2-hydroxypropan-2-yl)-5-methyloxazol-2-yl)-2-methylpiperidin-1-yl)methanone], which IC50 (human orexin-2 receptor) is on record?
Its IC50 is 114 nM.

And the IC50 (hOX1R)?
The IC50 was over 10000 nM.

For `Cc1cc(C(=O)N2C[C@H](c3nc(C(C)(C)O)c(C)o3)CC[C@H]2C)c(-n2nccn2)s1` [Example 43, ((2R,5R)-5-(4-(2-Hydroxypropan-2-yl)-5-methyloxazol-2-yl)-2-methylpiperidin-1-yl)(5-methyl-2-(2H-1,2,3-triazol-2-yl)thiophen-3-yl)methanone], which IC50 (human orexin-2 receptor) is on record?
Its IC50 is 30 nM.

What about the IC50 (hOX1R) of the same compound?
The IC50 was 1190 nM.

What does the source list for `CC[C@@](C)(O)c1nc([C@@H]2CC[C@@H](C)N(C(=O)c3ccccc3-n3nccn3)C2)oc1C` [Example 44, (2-(2H-1,2,3-Triazol-2-yl)phenyl)((2R,5R)-5-(4-((R)-2-hydroxybutan-2-yl)-5-methyloxazol-2-yl)-2-methylpiperidin-1-yl)methanone]?
IC50 (human orexin-2 receptor): 31 nM; IC50 (hOX1R): 790 nM

How did the IC50 (human orexin-2 receptor) turn out when `CC[C@](C)(O)c1nc([C@@H]2CC[C@@H](C)N(C(=O)c3ccccc3-n3nccn3)C2)oc1C` [Example 45, (2-(2H-1,2,3-triazol-2-yl)phenyl)((2R,5R)-5-(4-((S)-2-hydroxybutan-2-yl)-5-methyloxazol-2-yl)-2-methylpiperidin-1-yl)methanone] was run?
The IC50 was 24 nM.

And the IC50 (hOX1R)?
The IC50 was 1220 nM.

With `CC[C@](C)(O)c1nc([C@@H]2CC[C@@H](C)N(C(=O)c3cscc3-n3nccn3)C2)oc1C` [Example 46, (4-(2H-1,2,3-triazol-2-yl)thiophen-3-yl)((2R,5R)-5-(4-((S)-2-hydroxybutan-2-yl)-5-methyloxazol-2-yl)-2-methylpiperidin-1-yl)methanone] as the compound, how does the IC50 (human orexin-2 receptor) read?
The IC50 was 37 nM.

What about the IC50 (hOX1R) of the same compound?
Its IC50 is 4700 nM.
